Data set [1] has as its system pig vesicourethral junction sphincter muscle. Put plainly: Functional assay: dose response on isolated pig vesicourethral junction sphincter muscle strips. The class given is cell-based. The text has this:
Samples of female white landrace pig bladder and urethra were obtained from freshly slaughtered pigs at the local abattoir. The pigs were killed by exsanguination after initial stunning by electric shock. The anus, rectum, bladder and urethra were then excised en bloc during evisceration and immediately transferred into pre oxygenated Krebs' solution (1 mmol/l: NaCl 120, KCl 5.9 NaHCO3 15.4, CaCl2 2.5, MgCl2 1.2, glucose 11.5) and transported to the laboratory, where they were stored in the refrigerator (at 4° C.) until ready to be processed.
The location of the vesicourethral junction sphincter was then identified. The bladders were inflated via a transurethral catheter with 200 ml. fluid. The fluid was then gently squeeze towards the outlet, until a sharp narrowing of the bladder base becomes apparent (Dass, 1997; Dass et al., 2001). Tissue sections from this region were then denuded of urothelium, and dissected transversely into a number of muscle strips.
Muscle strips measuring about 5-6 mm by 2-3 mm with an average weight of 7 mg were dissected, fine (5/0) silk threads were tied at each end of the strips and each strip mounted vertically in a 0.2 ml capacity, perspex organ bath between two recessed platinum electrodes through which electrical field stimulation (EFS) could be delivered. Strips were constantly superfused with Krebs' solution (37° C.) at a rate of 1.5 ml 1 min. The Krebs' solutions were gassed with 97% oxygen 3% carbon dioxide. Drugs were delivered by substituting drug containing solutions of the desired concentration for Krebs' solutions.
The apparatus comprised of six organ baths in parallel allowing the study of six strips simultaneously as described by Brading and Sibley (1983). Each channel was calibrated with a 1 g weight attached to the transducer before each experiment, and tissues were tensioned to 1 g after mounting. Isomeric tension generated by the strips was measured using isomeric force displacement transducers, Pioden Dynamometer UFI transducers (Pioden Controls Ltd, Canterbury, Kent) or AD Instruments MLT050/D force transducers, amplified (Harvard Transducer/Amplifier, Harvard Apparatus Ltd, Edenbridge, Kent) and analyzed using MacLab Data Acquisition system (AD Instruments, Sydney, Australia) or AD Instruments OCTAL Bridge Amplifier connected to Power Lab/8SP (AD Instruments, Sydney, Australia) and Chart v3.6 software (Macintosh) or Chart v5 (PC).
Dose response curves for the various compounds were constructed by testing one drug on a pair of strip in each experiment. The preparations were subjected to a sequence of successive 10 s […] applications of increasing doses of drugs with intervening washout periods.
1R,2S-methoxamine hydrochloride, the compound of formula (Ia) and the compound of formula (III) were made available by Norgine International Research, Middlesex.
Responses were reported as either grams of tension or % maximum force and given as mean values ±SEM. EC50 values were used as a measure of potency. The EC50 values were measured from the graph of dose response curve using the kaleidograph graphical software applications. Results were assessed using statistical analysis software, StatView 5.0 (SAS Institute Inc.) using ANOVA followed by Fisher's test. Significant difference between data was assumed with p<0.05.

The subject of data set [2] is vesicourethral junction sphincter muscle strips. Put plainly: Enzyme assay: regeneration of 1R,2S-methoxamine from compound (Ia) by gamma glutamyl transferase, reaction product tested on muscle strips. The class given is cell-based, pig. As to conditions: for response of muscle strips: 0.3 mM. As to the method: Regeneration of 1R,2S-methoxamine from the Compound of Formula (Ia)
Into a clean glass vial (1 ml volume) the following reaction mixtures were pipetted as follows:
200 μl compound of formula (Ia), 10 mg/ml in Tris buffer (mol. wt. 376, therefore=2 mg compound of formula (Ia)=5.3 μMoles), 100 μl solution E
Reaction product of groups 1, 2 and 3 were only tested for biological activity after 30 minutes of incubation period at 37° C. while that of group 4 were also tested after, 10, 30 and 60 minutes of incubation period. A 5 h group of which reaction mixture indicated in group four were diluted by two fold after 30 min incubation were also tested for biological activity.
Gamma glutamyl transferase, 2-1-18 porcine kidney was purchased from Calzyme Labs San Luis Obispo, Calif. 93401 USA, glyclglycine was obtained from Acros Organics, New Jersey, USA while L-glutamic acid 5-(4-nitroanilide) was purchased from Fluka Chemie Switzerland.
The reaction mixture was incubated in HOT BOX oven, size one incubator made by Gallenpark, England, while the absorbance was measured (@λmax 405 nm), using Anthos 2020 UV/VIS spectrophotometer.
Representative traces of pig vesicourethral junction sphincter muscle response to various enzyme reaction products are shown in FIG. 3 and representative traces of pig proximal sphincter muscle response to various enzyme reaction products are shown in FIG. 4. The enzyme reaction products tested are as follows: • FIG. 3a-50 mM Tris HCl buffer; • FIG. 3b-50 mM Tris HCl buffer, gamma glutamyl transferase. • FIG. 3c-50 mM Tris HCl buffer, MgCl2.6H2O, glycylglycine, compound of formula (Ia); • FIG. 4a-50 mM Tris HCl buffer, MgCl2.6H2O, glycylglycine, gamma glutamyl transferase, compound of formula (Ia); • FIG. 4b-0.3 mM 1R,2S-methoxamine.

Data set [3] is described as follows: In vitro percutaneous absorption (skin permeation) of saturated solutions, modified Franz cell. As to conditions: dissolved in IPM/Pharmasolve 80:20 (v/v), compared with control solution. The class given is in vitro ADME, human. How it is done: For all experiments (one run with 9 cells) skin from one patient was used. The skin was excised full skin from surgery of the thigh, cleaned from adhering fat tissue, stored at −18° C. prior to use but not for longer than 6 months.
In vitro skin permeation investigation was performed as described in this Example.
The flux was calculated for every formulation by means of linear regression (performance with Excel software; regression coefficient to be >0.98) from the mean cumulative permeated amounts in μg/cm^2 during steady state against the time in hours. For test solution #1 the linear regression was calculated from 12-48 hours (not until 72 hours, because after 48 hours the permeation was decreasing). […] The lag-time (which was the time when steady state of permeation was starting after application) was taken from the intersection of the regression line with the time axis.
The transdermal delivery rate was assumed to be the same in vivo as it is in vitro (this must, of course, be proven by further kinetic studies). The patch size was set to 20 cm^2, which is middle sized (small patches are 5 cm^2; big patches are 60 cm^2) and the delivery rate was calculated daily (1 day=24 hours).
(flux rate steady state [μg/cm^2/h]×20 [cm^2]×24[h])/1000=delivery rate [mg/20 cm^2/24 h].

Data on 1 compound can be found in patent publication US20080090916A1, “Compounds for Treating Urinary Incontinence” (priority 2005, published 2008).

Entries after “also recorded” stand apart in the source; their conditions may differ.

In the case of `COc1ccc(OC)c([C@@H](O)[C@H](C)NC(=O)CC[C@H](N)C(=O)O)c1` [compound of formula (Ia), (S)-2-Amino-4-[(1S,2R)-2-(2,5-dimethoxyphenyl)-2-hydroxy-1-methyl-ethylcarbamoyl]butyric acid], the EC50 in data set [1] (Sus scrofa, contraction, from dose response curve, read-out: relative potencies (EC50)) was 4.64 mM. The “contractile response of muscle strip (representative traces)” value in data set [1] (compound alone, FIG. 1) is recorded as “no significant contraction; also recorded: little or no activity”. Besides, the “response over the dose range tested” value in data set [1] (dose range 10^−6M-10^−2M) was “failed to evoke any appreciable response”. Also, the “response of muscle strips” value in data set [2] (prepared in saline) was 1.15 g; in data set [2] (prepared in tris buffer) it was 1.22 g. In data set [2] (2-fold dilution post 30 min incubation with the enzyme), the “reduction of bladder activity of the reaction mixture” value worked out at 38%. For the same compound, the contractile response was 1.62 g in data set [2] (Mg^2+-glycylglycine-compound-enzyme mixture, 30 min incubation); 0.12 g in data set [2] (buffer-Mg^2+-glycylglycine-compound, no enzyme, 30 min incubation); 1.52 g in data set [2] (reaction mixture with enzyme, 10 min incubation); 1.10 g in data set [2] (reaction mixture with enzyme, 60 min incubation). Further, the “contractile response of pig bladder neck muscle” value in data set [2] (administered with gamma glutamyl transferase and glycylglycine, FIG. 4a) is “pronounced well defined contractile response”. Besides, the “enhancement factor for percutaneous absorption” value in data set [3] was determined as 13.84.

Broadly, the EC50 is the concentration at which the effect is half-maximal.
